Consider 2 compounds from US9599759B2, “Patterned polarizing film and its production process” (Sumitomo Chemical Company, Limited, priority 2014, dated 2017).

The series is described as follows: Saturated solubility at 23° C. of each dichroic dye in certain solvents (LC quantification). Format: physicochemical. The following applies: 24 hours agitation; for saturated solubility in ethanol: solvent ethanol; for saturated solubility in ethyl acetate: solvent ethyl acetate; for saturated solubility in isopropyl alcohol: solvent isopropyl alcohol; for saturated solubility in methanol: solvent methanol; for saturated solubility in propylene glycol 1-monomethyl ether 2-acetate: solvent propylene glycol 1-monomethyl ether 2-acetate; for saturated solubility in propylene glycol 1-monomethyl ether: solvent propylene glycol 1-monomethyl ether; for saturated solubility in tetrahydrofuran: solvent tetrahydrofuran. The procedure: [Measurement Method of Saturated Solubility]
This solution was sampled, and was dissolved together with 5 ml of a standard liquid in tetrahydrofuran to prepare a measurement solution. […] The standard liquid was prepared from 10 ml of hexylbenzene and 1000 ml of acetonitrile.
The liquid chromatograph (LC) measurement was carried out in the following condition.
Used column: KinetexC18, 2.6 μm, 100 mm×4.6 mm diameter
Column temperature: 40° C.
• (A liquid) 0.1%(v/v)—TFA/water • (B liquid) 0.1%(v/v)—TFA/acetonitrile 500/THF 50% • Gradient condition 0 min A liquid 60%, B liquid 40% • 30 min A liquid 0%, B liquid 100% • 35 min A liquid 0%, B liquid 100% • 35.1 min A liquid 60%, B liquid 40% • 45 min STOP TOTAL 45 min • Flow volume: 1.0 mL/min • Injection amount: 5 μL • Detection method: UV (254 nm)

For `CCCCc1ccc(N=Nc2ccc(N=Nc3ccc(N4CCCC4)cc3)cc2)cc1` [dichroic dye 1], the “saturated solubility in ethanol” value came out at 0.003 % by mass, the “saturated solubility in ethyl acetate” value came to 0.059 % by mass, the “saturated solubility in isopropyl alcohol” value was 0.002 % by mass and the “saturated solubility in methanol” value turned out to be 0.001 % by mass. Further, the “saturated solubility in propylene glycol 1-monomethyl ether 2-acetate” value is 0.077 % by mass, the “saturated solubility in propylene glycol 1-monomethyl ether” value was found to be 0.028 % by mass and the “saturated solubility in tetrahydrofuran” value is reported as 0.33 % by mass.
As to `CCCCc1ccc(N=Nc2ccc(N=Nc3ccc(OCCC)cc3)cc2)cc1` [dichroic dye 2], the “saturated solubility in ethanol” value is reported as 0.001 % by mass, the “saturated solubility in ethyl acetate” value was 1.3 % by mass, the “saturated solubility in isopropyl alcohol” value was found to be 0.043 % by mass and the “saturated solubility in methanol” value was 0.001 % by mass. Moreover, the “saturated solubility in propylene glycol 1-monomethyl ether 2-acetate” value came out at 0.89 % by mass, the “saturated solubility in propylene glycol 1-monomethyl ether” value amounted to 0.336 % by mass and the “saturated solubility in tetrahydrofuran” value came out at 4.5 % by mass.
